Data taken from patent publication US20230255953A1, “USE OF ROLUPERIDONE IN PREVENTING RELAPSE IN SCHIZOPHRENIA PATIENTS” (Minerva Neurosciences, Inc., priority 2022, published 2023).

Tested on: patients with negative symptoms of schizophrenia
Test: Study #2 (MIN-101C07): rate of relapse and time to relapse
Assay type: in vivo, human
Conditions: for Patients who experienced relapse (%) / Patients who experienced relapse (number) / Days to relapse (Kaplan-Meier estimates), Mean / Days to relapse (Kaplan-Meier estimates), Median: ITT, MIN-101C07
Procedure: “Time to relapse” in the DB period is defined as the number of days from Day 1 to the date of early trial termination due to relapse. […] Treatment differences in time to relapse in the DB period were analyzed using a Cox-regression model with treatment group and Baseline PANSS total score as covariates. For the analysis of the OL period, this analysis was repeated to analyze treatment differences in time to relapse in the study. For the OL period analysis, patients who were not observed to relapse in the study were censored on the date on which they ended the study. Kaplan-Meier plots of time to relapse in the DB period, OL period, and in the study were generated.
In some embodiments, for any of the methods disclosed herein, a relapse refers to a patient who is terminated early during treatment (or a study trial) due to worsening of psychosis or an adverse event or generalized symptom in Table 1.
Study #2 (also referred to as “MIN101C07”) was a Phase 3, randomized, DB, placebo-controlled, parallel-group 12-week study to evaluate the efficacy and safety of Roluperidone in patients ≥18 years to ≤55 years with negative symptoms of schizophrenia, followed by a 40-week OL extension. The study consisted of a pretreatment screening period of up to 28 days (including an antipsychotic medication washout period), a 12-week, DB, placebo-controlled period, and a 40-week OL period. Eligible patients (with moderate to severe negative symptoms of schizophrenia and stable positive symptoms but without severe symptoms of suspiciousness, agitation, hostility, uncooperativeness, or poor impulse control) were randomized 1:1:1 to receive Roluperidone 32 mg QD, Roluperidone 64 mg QD (GR01/B formulation, see U.S. Pat. No. 11,464,744), or placebo, orally, for 12 weeks. […] During the 40-week OL treatment extension, patients who were initially randomized to Roluperidone 32 mg or 64 mg continued treatment with the same dose, while patients who were initially randomized to placebo crossed over to Roluperidone 32 mg or 64 mg in a 1:1 ratio.

[1] = Placebo in DB to 32 mg in OL (N = 59), OL period
[2] = Roluperidone Total 32+64 mg (N = 341), DB period
[3] = Roluperidone Total 32+64 mg, DB period
[4] = Roluperidone throughout, Total (N = 211), OL period

Substance: 1H-Isoindol-1-one,2-[ [1-[2-(4-fluorophenyl)-2-oxoethyl]-4-piperidinyl]methyl]-2,3-dihydro-, hydrochloride, hydrate (1:1:2) [Roluperidone]
- Patients who experienced relapse (%) (32 mg (N = 170), DB period): 11%
- Patients who experienced relapse (number) (32 mg (N = 170), DB period): 18
- Patients who experienced relapse (number) (32 mg throughout the study (N = 107), OL period): 9
- Days to relapse (Kaplan-Meier estimates), Mean (32 mg throughout the study, OL period): 232.4 days
- Days to relapse (Kaplan-Meier estimates), Mean (32 mg, DB period): 124.9 days
- Days to relapse (Kaplan-Meier estimates), Median (32 mg, DB period): 137.0 days
- Patients who experienced relapse (%) (64 mg (N = 171), DB period): 5%
- Patients who experienced relapse (number) (64 mg (N = 171), DB period): 9
- Patients who experienced relapse (number) (64 mg throughout the study (N = 104), OL period): 10
- Days to relapse (Kaplan-Meier estimates), Mean (64 mg throughout the study, OL period): 186.7 days
- Days to relapse (Kaplan-Meier estimates), Mean (64 mg, DB period): 82.1 days
- Patients who experienced relapse (%) (Overall (N = 333), OL period): (8%)
- Patients who experienced relapse (number) (Overall (N = 333), OL period): 25
- Days to relapse (Kaplan-Meier estimates), Mean (Overall, OL period): 254.1 days
- Patients who experienced relapse (%) [1]: (10%)
- Patients who experienced relapse (number) [1]: 6
- Days to relapse (Kaplan-Meier estimates), Mean (Placebo in DB to 32 mg in OL, OL period): 253.6 days
- Patients who experienced relapse (number) (Placebo in DB to 64 mg in OL (N = 63), OL period): 0
- Patients who experienced relapse (number) (Placebo in DB to Roluperidone in OL, Total (N = 122), OL period): 6
- Days to relapse (Kaplan-Meier estimates), Mean (Placebo in DB to Roluperidone in OL, Total, OL period): 260.4 days
- Patients who experienced relapse (%) [2]: 8%
- Patients who experienced relapse (number) [2]: 27
- Days to relapse (Kaplan-Meier estimates), Mean [3]: 127.8 days
- Days to relapse (Kaplan-Meier estimates), Median [3]: 137.0 days
- Patients who experienced relapse (%) [4]: (9%)
- Patients who experienced relapse (number) [4]: 19
- Days to relapse (Kaplan-Meier estimates), Mean (Roluperidone throughout, Total, OL period): 230.9 days
- Relapse by study phase (Study #2 (n = 513), all subjects, Double-blind (12-weeks)): 6.8%
- Relapse overall (discontinued because of positive symptoms worsening) (Study #2 (n = 513), Overall (over 52 weeks)): 11.7%
- Relapse by study phase (Study #2, Open-label (over 40 weeks)): 7.5%
